Experimental data reported in publication PMC9775191, “A Subset Screen of the Compounds Australia Scaffold Library Identifies 7-Acylaminodibenzoxazepinones as Potent and Selective Hits for Anti-Giardia Drug Discovery” (Biomedicines, 2022).

System: G. duodenalis BRIS/91/HEPU/1279
Test: Primary Giardia screen at 10 µM (live-cell imaging, automated counting)
Format: cell-based, Giardia duodenalis
In short: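 Singlicate, 10 μM final, 0.2% DMSO; sealed chambers, 3% O2/5% CO2/N2. Counts by live-cell imaging at 24 h and 48 h. % growth vs vehicle, media background subtracted; Z' per plate.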

Compound	% Inhibition n=1 48h (48 h, first singlicate assay)	also measured
Cn1ncc2c1CCCC2NC(=O)N1CCCCC(N2CCCC2)C1 (stereo not shown) [SN00781466]	13.9%	–
Cc1sc2c(c1C)C(c1ccc(F)cc1)=NCC(=O)N2CC(=O)Nc1ccc(Cl)cc1 [SN00791866]	0.0%	–
O=C1c2ccccc2C(=O)N1CC(=O)n1nc(-c2cccnc2)nc1NCc1cccs1 [SN00785806]	3.6%	–
CCCS(=O)(=O)N1CCc2c(c(-c3nnc(-c4ccc(F)cc4)o3)nn2C)C1 [SN00796867]	0.0%	–
Cc1oc(-c2ccco2)nc1CN1CCc2cnc(C(C)C)nc2C1 [SN00807954]	0.1%	–
Cc1cc(NC(=O)c2ccc([N+](=O)[O-])cc2)n(-c2nc3ccccc3[nH]2)n1 [SN00776157]	6.0%	–
Cc1ccnc(N2CCCC(C(=O)NC3CCCC3)C2)n1 (stereo not shown) [SN00795015]	10.9%	–
Cc1nn(Cc2csc(-c3ccsc3)n2)c(C)c1S(=O)(=O)N1CCc2ccccc21 [SN00774089]	7.1%	–
CCCCOC(=O)c1ccc(NC(=O)c2cc3c(=O)n(C)c(=O)n(C)c3n2CCC)cc1 [SN00772629]	16.7%	–
Cc1ccc(Nc2cc(N3CCN(S(=O)(=O)c4ccc(C)c(C)c4)CC3)nc(C)n2)cc1 [SN00786472]	20.7%	–
Cc1nc(CN2CCN(C(=O)c3c(C)c(C)n[nH]c3=O)CC2)cs1 [SN00780594]	0.0%	–
O=C(C1CCCN1C(=O)C1CCCCC1)N1CCCC(c2nc(-c3ccc(Cl)cc3)no2)C1 (stereo not shown) [SN00774977]	0.0%	–
Cn1c(=O)[nH]c(=O)c2c1nc(N1CCNCC1)n2Cc1ccc(Br)cc1 [SN00776836]	0.0%	–
CN(C)C(=O)c1[nH]nc2c1CN(C(=O)CCc1ccccc1)CC2 [SN00800269]	0.0%	–
COc1cccc(C(=O)N(CC2CCOC2)C2CC2)c1 (stereo not shown) [SN00801182]	0.0%	–
CCCCn1c(=O)[nH]c(=O)c2c1nc(-c1ccc(-c3ccc([N+](=O)[O-])cc3Cl)o1)n2C [SN00775787]	19.8%	–
O=c1c2ccsc2ncn1Cc1noc(-c2ccsc2)n1 [SN00779979]	0.0%	–
O=C(NCCc1ccccc1)c1ccc(Nc2nc3ccccc3n3nnnc23)cc1 [SN00784739]	8.5%	–
CCCCOc1ccc(CNC(=O)C2CCN(c3nccc4sc(C)cc34)CC2)cc1 [SN00797785]	27.9%	–

Compound	% Inhibition n=1 48h (48 h, first singlicate assay)	also measured
Cc1cccc(NC(=O)N2CCN(c3nc(C)cc(N4CCN(C)CC4)n3)CC2)c1 [SN00793530]	17.4%	–
CCOC(=O)c1cc2n(n1)CC(C)(C(=O)NCCC(C)C)N(CCc1cccs1)C2=O (stereo not shown) [SN00785530]	6.6%	–
Cc1ccccc1C(=O)N1CCC(Cc2nnc(-c3ccccc3)o2)CC1 [SN00799218]	12.0%	–
O=C(Cn1cnc2c(nnn2Cc2ccc(Cl)cc2)c1=O)NC1CCCC1 [SN00802568]	16.4%	–
NC(=O)C1=C(Nc2ccccc2)c2ccccc2S1(=O)=O [SN00786825]	65.7%	Average % Inhibition 24h (24 h): 12.8%; % Inhibition n=1 24h (24 h, first singlicate assay): 25.7%; % Inhibition n=2 24h (24 h, re-assessment): 0.0%; Average % Inhibition 48h (48 h): 48.5%; % Inhibition n=2 48h (48 h, re-assessment): 31.3%
COc1ccc(S(=O)(=O)N2CCN(C(=O)c3cc(C)n(C(C)C)c3C)CC2)cc1OC [SN00774751]	14.4%	–
O=C(Cn1c(-c2ncccn2)noc1=O)N1CCCCC1 [SN00781438]	1.7%	–
CS(=O)(=O)N1CCCC1C(=O)OCc1cc(=O)n2c3c(sc2n1)CCCC3 (stereo not shown) [SN00775816]	10.4%	–
COc1ccc2c(c1)CCCN(C(=O)c1nnc3ccccc3c1N)C2 [SN00773025]	10.7%	–
CCN(CC)S(=O)(=O)c1ccc2[nH]cc(C(=O)NCCCN3CCCC3)c(=O)c2c1 [SN00794535]	13.0%	–
COc1ccccc1CN1CCN(c2cc(C(=O)O)c3cc(NC(C)=O)ccc3n2)CC1 [SN00790290]	39.8%	–
CC1(C(=O)NCc2ccc(F)cc2)Cn2nc(-c3ccco3)cc2C(=O)N1Cc1ccccc1 (stereo not shown) [SN00787370]	13.6%	–
Cc1nc(-n2nc(C)c(Cc3ccccc3Cl)c2C)sc1C(=O)NC(C)C [SN00786185]	0.0%	–
CCNC(=O)c1c(C)oc2c1CNCC2 [SN00802246]	10.3%	–
O=C(Cn1nc2n(c1=O)CCCC2)NCc1ccccc1Br [SN00801654]	6.0%	–
CC(NC(=O)Cn1nc(-c2ccccc2)c2ccccc2c1=O)c1ccccc1 (stereo not shown) [SN00783639]	3.0%	–
CCC(=O)Nc1cccc(-c2noc(C3CCCN(C(=O)c4ccc(C)c(F)c4)C3)n2)c1 (stereo not shown) [SN00797220]	14.6%	–
COc1ccc(C(=O)c2c(N)c(-c3nc(-c4cc(OC)ccc4OC)cs3)c3ccccn23)cc1 [SN00785721]	0.0%	–
Cc1sc2ccn(CC(C)C)c(=O)c2c1C(=O)NCCN1CCCCC1 [SN00799956]	23.1%	–
